Assay results as given in US10889591B2, “PDE9 inhibitor and use thereof” (Nanjing TransThera Biosciences Co. Ltd., priority 2017, dated 2021).
Where two headings read alike, the source gives them in different places.

Assays:
[1] = Stability in human liver microsome; conditions: for CLint / k / Original drug residual % at 60 min / T1/2 (min): human liver microsome 0.5 mg protein/mL, compound 1 μM; for k: slope of log remaining amount versus time; for Original drug residual % at 60 min: β-NADPH 1 mM, 37° C.; for half-life at 1 μM: human, liver microsomes
in vitro = conditions: human, microsomes
[2] = human; for CLint: microsomes
[3] = Canine pharmacokinetic evaluation; type: in vivo; conditions: Beagle dogs; for Vz_obs iv (apparent distribution volume) / AUC(0-inf) / half-life / bioavailability / clearance: n = 3; for Tmax / AUC(0-inf) / half-life / bioavailability / clearance: dog, plasma; for Tmax: n = 3, median; for clearance: read-out: Cl_obs iv (clearance rate) (converted)
Source text: 1. Animal Administration and Sample Collection
2. Sample Analysis Method
3. Data Processing Method

[4] = Rat pharmacokinetic evaluation; type: in vivo, SD male rats; conditions: SD rat, intravenous bolus 1 mg/kg; for AUC(0-t) / clearance / half-life: male, Sprague-Dawley, plasma; for AUC(0-t): read-out: AUClast iv; for clearance: read-out: Cl_obs iv (clearance rate) (converted); for half-life: read-out: tz1/2 iv (terminal elimination half-life) (converted)
[5] = Rat pharmacokinetic evaluation; type: in vivo, SD male rats; conditions: male, Sprague-Dawley, plasma, SD rat; for Tmax / AUC(0-t) / half-life: po, intragastric 5 mg/kg; for Tmax: median; for AUC(0-t): read-out: AUClast po; for half-life: read-out: tz1/2 po (terminal elimination half-life) (converted); for bioavailability: dose iv/po 1/5 mg/kg, read-out: F % (absolute bioavailability)
Description: Experimental Example 4: Rat Pharmacokinetic Evaluation of the Compounds of the Invention
Aim: The in vivo pharmacokinetic parameters of the compounds in SD male rats (purchased from Beijing Vital River Animal Technology Co., Ltd.) were evaluated and bioavailability of the compounds was examined.
Animal Administration and Sample Collection:
The solution of compounds 65, 90, 107, 158 was intragastrically administered to SD rat at a dose of 5.0 mg/kg.
The experimental compound 76 was dissolved in 30% DMF+30% PEG400+40% saline to prepare a solution. The solution of compound 76 was intragastrically administered to SD rat at a dose of 5.0 mg/kg.
The experimental compound 76 was dissolved in 30% DMF+30% PEG400+40% saline to prepare a solution.
The experimental compounds 84 and 96 were dissolved in 5% DMSO+10% PEG400+85% (28% HP-β-CD) saline to prepare a solution. The solution of compounds 84 and 96 was intragastrically administered to SD rat at a dose of 5.0 mg/kg.
The experimental compounds 84 and 96 were dissolved in 5% DMSO+10% PEG400+85% (28% HP-β-CD) saline to prepare a solution.
The animals were fixed. The tail was heated with a water bath at 10 min before each time point. About 100 μL of blood from tail vein was collected, and then placed in an anti-coagulation tube containing EDTA-K2 after collection. Blood samples were centrifuged at 8000 rpm at 4° C. for 6 min to obtain plasma samples.
The concentration of test sample was output using Analyst 1.6.1 from AB SCIEX.

[6] = intravenous bolus 1 mg/kg, read-out: AUCinf iv
[7] = intravenous bolus 1 mg/kg, read-out: tz1/2 iv (terminal elimination half-life) (converted)

In the case of `N#Cc1c(Nc2ccc(Cl)cc2)c2ccncc2[nH]c1=O` [Compound 18, 4-((4-chlorophenyl)amino)-2-oxo-1,2-dihydro-1,7-naphthyridin-3-carbonitrile], the CLint [1] is reported as 0.1244 mL · min^−1 · mg^−1 proteins, the “k” value [1] is reported as 0.727 min⁻¹ and the “Original drug residual % at 60 min” value [1] is reported as 5.19%. It also gave a half-life at 1 μM [1] of 0.186 h.
With `N#Cc1c(N2CC[C@@H](n3cccn3)C2)c2ccncc2[nH]c1=O` [Compound 19, (R)-4-(3-(1H-pyrazol-1-yl)pyrrolidin-1-yl)-2-oxo-1,2-dihydro-1,7-naphthyridin-3-carbonitrile] the CLint [1] was 0.0012 mL · min^−1 · mg^−1 proteins, the “k” value [1] was 0.191 min⁻¹ and the “Original drug residual % at 60 min” value [1] was 93.4%. It also gave a half-life at 1 μM [1] of 19.2 h.
In the case of `N#Cc1c(N2CCC3(CC2)CC3)c2cc(C(O)CO)ncc2[nH]c1=O` (stereo not drawn) [Compound 32, 6-(1,2-dihydroxyethyl)-2-oxo-4-(6-azaspiro[2.5]octane-6-yl)-1,2-dihydro-1,7-naphthyridin-3-carbonitrile], the “T1/2 (min)” value [1] is reported as “→∞”, the “k” value [1] is reported as -0.3760 min⁻¹ and the “Original drug residual % at 60 min” value [1] is reported as 99.8%.
With `N#Cc1c(N2CCC3(CCC3)CC2)c2cc(N3CC(O)C3)ncc2[nH]c1=O` [Compound 51, 6-(3-hydroxyazetidin-1-yl)-2-oxo-4-(7-azaspiro[3.5]nonane-7-yl)-1,2-dihydro-1,7-naphthyridin-3-carbonitrile] the half-life (in vitro) was 2.1 h, the “Original drug residual % at 60 min” value [2] was 74.1% and the “k” value [2] was 0.9418 min⁻¹. The CLint [2] was 0.0110 mL · min^−1 · mg^−1 proteins.
For `N#Cc1c(N2CCC3(CCC3)CC2)c2cc(N3CC(N)C3)ncc2[nH]c1=O` [Compound 53, 6-(3-aminoazetidin-1-yl)-2-oxo-4-(7-azaspiro[3.5]nonane-7-yl)-1,2-dihydro-1,7-naphthyridin-3-carbonitrile], the half-life (in vitro) was 10.5 h, the “Original drug residual % at 60 min” value [2] was 91.4% and the “k” value [2] was 0.4821 min⁻¹. For the same compound, the CLint [2] was 0.0022 mL · min^−1 · mg^−1 proteins.
In the case of `Cc1cc2c(N3CCC4(CCC4)CC3)c(C#N)c(=O)[nH]c2cn1` [Compound 65, 6-methyl-2-oxo-4-(7-azaspiro[3.5]nonane-7-yl)-1,2-dihydro-1,7-naphthyridin-3-carbonitrile], the “Vz_obs iv (apparent distribution volume)” value ([3]; intravenous bolus 1 mg/kg) is reported as 0.66 L/kg, the Tmax ([3]; po, intragastric 2 mg/kg) is reported as 0.5 h and the AUC(0-inf) ([3]; po, intragastric 2 mg/kg, read-out: AUCinf po) is reported as 543 ng·h/mL. For the same compound, the half-life ([3]; po, intragastric 2 mg/kg, read-out: tz1/2 po (terminal elimination half-life) (converted)) was 0.47 h, the bioavailability ([3]; dose iv/po 1/2 mg/kg) was 25.5% and the AUC(0-inf) [3, 6] was 1060 ng·h/mL. For the same compound, the clearance ([3]; intravenous bolus 1 mg/kg) was 15.7 mL/min/kg, the half-life [3, 7] was 0.49 h and the “Vz_obs iv (apparent distribution volume)” value [4] was 1.75 L/kg. The AUC(0-t) [4] was 1240 ng·h/mL, the clearance [4] was 13.8 mL/min/kg and the half-life [4] was 1.47 h. For the same compound, the Tmax [5] was 0.5 h, the AUC(0-t) [5] was 3000 ng·h/mL and the half-life [5] was 2.25 h. For the same compound, the bioavailability [5] was 51.8%.
With `COc1cc2c(N3CCC4(CCC4)CC3)c(C#N)c(=O)[nH]c2cn1` [Compound 66, 6-methoxy-2-oxo-4-(7-azaspiro[3.5]nonane-7-yl)-1,2-dihydro-1,7-naphthyridin-3-carbonitrile] the “k” value [1] was -0.515 min⁻¹ and the “Original drug residual % at 60 min” value [1] was 101%.
For `N#Cc1c(N2CCC3(CC2)CC3)c2ncccc2[nH]c1=O` [Compound 80, 2-oxo-4-(6-azaspiro[2.5]octane-6-yl)-1,2-dihydro-1,5-naphthyridin-3-carbonitrile], the half-life (in vitro) was 0.792 h, the “Original drug residual % at 60 min” value [2] was 41.7% and the “k” value [2] was 0.9877 min⁻¹. The CLint [2] was 0.0292 mL · min^−1 · mg^−1 proteins.
In the case of `COC1(C)CCN(c2c(C#N)c(=O)[nH]c3cnccc23)CC1` [Compound 81, 4-(4-methoxy-4-methylpiperidin-1-yl)-2-oxo-1,2-dihydro-1,7-naphthyridin-3-carbonitrile], the CLint [1] is reported as 0.0024 mL · min^−1 · mg^−1 proteins, the “k” value [1] is reported as 0.0012 min⁻¹ and the “Original drug residual % at 60 min” value [1] is reported as 94.6%. It also gave a half-life at 1 μM [1] of 9.63 h.
With `CC(C)(O)c1cc2c(N3CCC4(CCC4)CC3)c(C#N)c(=O)[nH]c2cn1` [Compound 82, 6-(2-hydroxypropan-2-yl)-2-oxo-4-(7-azaspiro[3.5]nonane-7-yl)-1,2-dihydro-1,7-naphthyridin-3-carbonitrile] the half-life (in vitro) was 2.07 h, the “Original drug residual % at 60 min” value [2] was 72.4% and the “k” value [2] was 0.9760 min⁻¹. For the same compound, the CLint [2] was 0.0112 mL · min^−1 · mg^−1 proteins.
For `N#Cc1c(N2CCC3(CC2)CC3)c2cc(C(=O)O)ncc2[nH]c1=O` [Compound 83, 3-cyano-2-oxo-4-(6-azaspiro[2.5]octane-6-yl)-1,2-dihydro-1,7-naphthyridin-6-carboxylic acid], the “T1/2 (min)” value [1] was “→∞”, the “k” value [1] was 0.5421 min⁻¹ and the “Original drug residual % at 60 min” value [1] was 104.1%.
For `CC(C)(O)c1cc2c(N3CCC4(CC3)CC4)c(C#N)c(=O)[nH]c2cn1` [Compound 84, 6-(2-hydroxypropan-2-yl)-2-oxo-4-(6-azaspiro[2.5]octane-6-yl)-1,2-dihydro-1,7-naphthyridin-3-carbonitrile], the “Vz_obs iv (apparent distribution volume)” value [4] was 1.16 L/kg, the AUC(0-t) [4] was 2430 ng·h/mL and the clearance [4] was 8.17 mL/min/kg. For the same compound, the half-life [4] was 1.89 h, the Tmax [5] was 1 h and the AUC(0-t) [5] was 7580 ng·h/mL. It also gave a half-life [5] of 3.24 h and a bioavailability [5] of 62.5%.
For `CNC(=O)c1cc2c(N3CCC4(CC3)CC4)c(C#N)c(=O)[nH]c2cn1` [Compound 96, 3-cyano-N-methyl-2-oxo-4-(6-azaspiro[2.5]octane-6-yl)-1,2-dihydro-1,7-naphthyridin-6-formamide], the “Vz_obs iv (apparent distribution volume)” value [4] was 0.57 L/kg, the AUC(0-t) [4] was 769 ng·h/mL and the clearance [4] was 22 mL/min/kg. The half-life [4] was 0.3 h.
In the case of `CCc1cc2c(N3CCC(C)(OC)CC3)c(C#N)c(=O)[nH]c2cn1` [Compound 107, 6-ethyl-4-(4-methoxy-4-methylpiperidin-1-yl)-2-oxo-1,2-dihydro-1,7-naphthyridin-3-carbonitrile], the CLint [1] is reported as 0.0046 mL · min^−1 · mg^−1 proteins, the “k” value [1] is reported as 0.0023 min⁻¹ and the “Original drug residual % at 60 min” value [1] is reported as 88.5%. For the same compound, the half-life at 1 μM [1] was 5.02 h, the “Vz_obs iv (apparent distribution volume)” value ([3]; intravenous bolus 1 mg/kg) was 2.05 L/kg and the Tmax ([3]; po, intragastric 1 mg/kg) was 0.5 h. For the same compound, the AUC(0-inf) ([3]; po, intragastric 1 mg/kg, read-out: AUCinf po) was 757 ng·h/mL, the half-life ([3]; po, intragastric 1 mg/kg, read-out: tz1/2 po (terminal elimination half-life) (converted)) was 2.56 h and the bioavailability ([3]; dose iv/po 1/1 mg/kg) was 61.5%. It also gave an AUC(0-inf) [3, 6] of 1230 ng·h/mL, a clearance ([3]; intravenous bolus 1 mg/kg) of 16 mL/min/kg and a half-life [3, 7] of 1.64 h. The “Vz_obs iv (apparent distribution volume)” value [4] was 2.13 L/kg, the AUC(0-t) [4] was 748 ng·h/mL and the clearance [4] was 24.2 mL/min/kg. For the same compound, the half-life [4] was 1.25 h, the Tmax [5] was 0.5 h and the AUC(0-t) [5] was 1940 ng·h/mL. The half-life [5] was 2.68 h and the bioavailability [5] was 56.8%.
In the case of `COC1(C)CCN(c2c(C#N)c(=O)[nH]c3cnc(C(C)(C)O)cc23)CC1` [Compound 109, 6-(2-hydroxypropan-2-yl)-4-(4-methoxy-4-methylpiperidin-1-yl)-2-oxo-1,2-dihydro-1,7-naphthyridine-3-carbonitrile], the CLint [1] is reported as 0.0020 mL · min^−1 · mg^−1 proteins, the “k” value [1] is reported as 0.4444 min⁻¹ and the “Original drug residual % at 60 min” value [1] is reported as 91.9%. For the same compound, the half-life at 1 μM [1] was 11.6 h.
In the case of `COCCOc1cc2c(N3CCC(C)(OC)CC3)c(C#N)c(=O)[nH]c2cn1` [Compound 145, 4-(4-methoxy-4-methylpiperidin-1-yl)-6-(2-methoxyethoxy)-2-oxo-1,2-dihydro-1,7-naphthyridin-3-carbonitrile], the CLint [1] is reported as 0.0038 mL · min^−1 · mg^−1 proteins, the “k” value [1] is reported as 0.0019 min⁻¹ and the “Original drug residual % at 60 min” value [1] is reported as 88.2%. It also gave a half-life at 1 μM [1] of 6.08 h.
With `COC1(C)CCN(c2c(C#N)c(=O)[nH]c3cnc(C)cc23)CC1` [Compound 158, 4-(4-methoxy-4-methylpiperidin-1-yl)-6-methyl-2-oxo-1,2-dihydro-1,7-naphthyridin-3-carbonitrile] the CLint [1] was 0.0026 mL · min^−1 · mg^−1 proteins, the “k” value [1] was 0.0013 min⁻¹ and the “Original drug residual % at 60 min” value [1] was 92.6%. For the same compound, the half-life at 1 μM [1] was 8.88 h.
